Results published in ChEMBL document CHEMBL1201862, “PubChem BioAssay data set” (2004).
Activity calls are given as the source filed them.

Assays:
[1] = antiviral protection against BTV-induced cell death – arbovirus, BSR cells, confirmation (AID 1250); type: functional;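 note: protection from viral cytopathic effect measured as cell viability by ATP luminescence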
[2] = NIH3T3 cell viability loss – ATP luminescence, mouse fibroblasts, counter-screen, dose response (AID 2010); type: functional, cell-based;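 note: cells exposed to compound for about 90 hours before reading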
[3] = Trypanosoma cruzi growth suppression in host cells – NIH3T3 host cells, beta-gal luminescence, confirmation (AID 2044); type: functional, cell-based;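 note: intracellular parasites grown in NIH/3T3 mouse fibroblasts as host cells; luminescent beta-galactosidase reporter signal from transgenic T. cruzi replicating inside host cells; inhibitors lower the luminescence signal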
Leucine aminopeptidase = target: T1, Leucine aminopeptidase (Plasmodium falciparum 3D7, UniProt Q8IL11); test: P. falciparum M17LAP inhibitors, primary screen, biochemical, fluorogenic H-Leu-NHMec substrate, 1536-well (AID 1619); type: functional
T1 sequence (Q8IL11 whole entry): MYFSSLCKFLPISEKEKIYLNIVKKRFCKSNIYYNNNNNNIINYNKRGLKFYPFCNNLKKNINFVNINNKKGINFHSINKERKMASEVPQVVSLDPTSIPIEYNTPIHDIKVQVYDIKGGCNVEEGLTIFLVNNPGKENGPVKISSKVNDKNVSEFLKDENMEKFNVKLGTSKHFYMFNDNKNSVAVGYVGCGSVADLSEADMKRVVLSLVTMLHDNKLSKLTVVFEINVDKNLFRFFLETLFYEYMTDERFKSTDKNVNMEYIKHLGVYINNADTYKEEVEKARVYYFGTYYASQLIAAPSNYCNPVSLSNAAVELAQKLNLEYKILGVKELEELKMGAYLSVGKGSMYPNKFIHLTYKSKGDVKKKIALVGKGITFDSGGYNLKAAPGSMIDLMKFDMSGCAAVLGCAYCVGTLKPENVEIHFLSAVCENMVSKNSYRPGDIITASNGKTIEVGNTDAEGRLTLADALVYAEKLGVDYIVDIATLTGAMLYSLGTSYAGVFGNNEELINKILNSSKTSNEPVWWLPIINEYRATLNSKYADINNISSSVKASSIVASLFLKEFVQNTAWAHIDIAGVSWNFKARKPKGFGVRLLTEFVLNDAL

Aspartyl aminopeptidase = target: T2, Aspartyl aminopeptidase (Plasmodium falciparum 3D7, UniProt Q8I2J3); test: Counterscreen for inhibitors of M1 and M17 aminopeptidases: QFRET-based biochemical high throughput dose response assay for inhibitors of the Plasmodium falciparum M18 Aspartyl Aminopeptidase (PFM18AAP). [Related PubChem assays: 1619 (Screening assay (M17LAP inhibitors).), 1445 (Screening assay (M1AAP inhibitors).)]
T2 sequence (Q8I2J3 whole entry): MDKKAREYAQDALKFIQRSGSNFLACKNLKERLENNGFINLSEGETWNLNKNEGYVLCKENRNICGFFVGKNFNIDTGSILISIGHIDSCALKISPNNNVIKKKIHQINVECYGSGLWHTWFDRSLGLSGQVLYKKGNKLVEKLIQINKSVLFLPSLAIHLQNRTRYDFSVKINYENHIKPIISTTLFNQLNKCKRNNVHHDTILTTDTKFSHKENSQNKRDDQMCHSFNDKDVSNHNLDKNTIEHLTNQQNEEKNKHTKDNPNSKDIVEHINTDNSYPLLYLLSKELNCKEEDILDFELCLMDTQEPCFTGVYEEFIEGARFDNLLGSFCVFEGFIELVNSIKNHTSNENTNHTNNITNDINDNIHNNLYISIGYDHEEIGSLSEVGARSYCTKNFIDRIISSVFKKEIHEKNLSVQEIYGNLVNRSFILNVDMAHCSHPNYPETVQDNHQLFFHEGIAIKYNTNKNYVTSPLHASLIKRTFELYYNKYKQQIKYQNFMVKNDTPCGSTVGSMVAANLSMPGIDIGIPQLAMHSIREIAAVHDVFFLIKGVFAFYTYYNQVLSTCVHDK

Procathepsin L = Procathepsin L (Homo sapiens, UniProt P07711); test: CTSL1 protease inhibition – biochemical, QFRET, 1536-well, counter-screen for M1/M17 aminopeptidase inhibitor project, dose response (AID 2214)
Sequence of Procathepsin L (P07711 whole entry): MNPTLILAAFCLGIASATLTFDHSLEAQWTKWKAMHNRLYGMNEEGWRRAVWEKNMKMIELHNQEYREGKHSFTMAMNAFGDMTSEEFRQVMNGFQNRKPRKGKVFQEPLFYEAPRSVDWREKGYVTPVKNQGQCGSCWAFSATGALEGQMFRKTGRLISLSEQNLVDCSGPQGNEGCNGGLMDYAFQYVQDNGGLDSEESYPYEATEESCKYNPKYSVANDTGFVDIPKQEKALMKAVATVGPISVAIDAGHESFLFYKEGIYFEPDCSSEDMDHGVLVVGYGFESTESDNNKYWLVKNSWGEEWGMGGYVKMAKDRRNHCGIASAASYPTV

| SMILES | IC50 [1] | EC50 [2] | EC50 [3] | IC50 (Leucine aminopeptidase) | IC50 (Aspartyl aminopeptidase) | IC50 (Procathepsin L) |
| --- | --- | --- | --- | --- | --- | --- |
| S=C(NCc1ccccc1)N1CCn2cccc2C1c1cccnc1 (stereo not given) | 22.1 µM (active) | > 60 µM (inconclusive) | 2.95 µM (active) |  |  |  |
| CCc1ccc(Nc2nnc(SC3CCOC3=O)s2)cc1 (stereo not given) |  |  |  | 2.64 µM (active) | > 73.5 µM (not active) | > 59.6 µM (not active) |
| COC(=O)c1c(-c2ccco2)csc1NC(=O)C1CC=CCC1C(=O)O (stereo not given) |  |  |  | 1.39 µM (active) | > 73.5 µM (not active) | > 59.6 µM (not active) |
| COC(=O)/C=C/c1sc2nc(C)cc(C)c2c1/N=C/N(C)C | 34.4 µM (active) |  |  |  |  |  |
